Assay results as given in patent publication US12558424B2, “T cells having enhanced anti-tumor activity” (The United States of America, as represented by the …, priority 2019, dated 2026).
Like-named read-outs stand apart in the source and are kept apart here.

Assays:
[1] = tested on: MiaPaCa; assay: MiaPaCa CTG; format: cell-based; settings: Homo sapiens, MIA PaCa-2; MiaPaCa cells
[2] = target: LDH(A) (Homo sapiens, UniProt P00338); assay: LDH(A) biochemical IC50
[3] = target: LDA(B) (Homo sapiens, UniProt P07195); assay: LDA(B) biochemical IC50
LDA(B), sequence (P07195 whole entry): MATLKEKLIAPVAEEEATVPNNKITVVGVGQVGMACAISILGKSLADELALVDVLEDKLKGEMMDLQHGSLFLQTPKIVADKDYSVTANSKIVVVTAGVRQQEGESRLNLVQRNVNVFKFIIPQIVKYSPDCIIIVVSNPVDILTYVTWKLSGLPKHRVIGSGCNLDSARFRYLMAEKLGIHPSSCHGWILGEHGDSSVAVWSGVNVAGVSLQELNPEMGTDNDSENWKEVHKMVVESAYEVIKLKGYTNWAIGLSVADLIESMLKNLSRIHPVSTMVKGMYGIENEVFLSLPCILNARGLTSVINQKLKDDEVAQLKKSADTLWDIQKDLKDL

[4] = tested on: A673; assay: A673 Lactate OP; format: cell-based; settings: Homo sapiens; A673 cells
[5] = PK AUC after IV and PO dosing; settings: in vivo
[6] = tested on: MiaPaCa; assay: MiaPaCa Lactate OP; format: cell-based; settings: Homo sapiens, MIA PaCa-2; MiaPaCa cells
[7] = target: lactate dehydrogenase (Homo sapiens, UniProt P00338); assay: SPR binding (+NADH)
[8] = tested on: A673; assay: A673 CTG; format: cell-based; settings: Homo sapiens; A673 cells
[9] = tested on: pmel-1 CD8+ T cells; assay: Flow cytometry of pmel-1 CD8+ T cell differentiation (CD44, CD62L, Sca-1); format: cell-based, mouse; settings: NCI-737 1 μM
[10] = tested on: human CD8+ T cells; assay: Seahorse mitochondrial stress test (OCR, ECAR, SRC), human CD8+ T cells; format: cell-based; settings: both IL-21 and IL-2
[11] = tested on: murine splenic CD8+ T cells; assay: RNA-Seq gene expression; format: cell-based, mouse
Method: (§1) Except where otherwise specified, all experiments were performed with murine splenic CD8+ T cells isolated with […] Technologies EasySep™ Mouse CD8+ T Cell Isolation Kit (catalog #19853). Following isolation, cells were resuspended at 1×10^6 cells/ml in T cell culture medium: RPMI 1640 medium (Thermo 11875093) containing 10% fetal bovine serum (FBS), 1× Glutamax (Life Technologies #35050-061), 1 mM sodium pyruvate, 0.1% β-mercaptoethanol, and penicillin/streptomycin. Cells were plated in 24-well tissue culture plates precoated with mouse anti-CD3 (2 μg/ml) and cultured with soluble mouse anti-CD28 (2 μg/ml) for 48 h. After incubation, cells were pooled, washed twice in media, and re-plated at 1×10^6 cells/ml. […] Unless otherwise specified, cells were stimulated for 48 h before being harvested. Where noted, cells were treated (1 μM) with a novel, pyrazole-based LDH inhibitor (NCI-737, herein denoted as NCI-737) that was developed under the auspices of the NCI Experimental Therapeutics Program 29.
Total RNA was extracted using an RNA miniprep kit (Zymo Research), and 500 ng RNA was used for library preparation. RNA-Seq libraries were prepared using mRNA HyperPrep Kits (KK8580, Kapa Biosystems) and indexed with NEXTflex DNA Barcodes-24. After final amplification, samples were loaded to 2% E-Gel pre-cast gels (ThermoFisher), and 250 to 400 bp DNA fragments were recovered and purified with Zymoclean Gel DNA Recovery Kit […]. After quantification by Qubit (Invitrogen), barcoded samples were mixed and sequenced on an Illumina HiSeq3000 platform. Sequenced reads (50 bp, single end) were obtained with the Illumina CASAVA pipeline and mapped to the mouse genome mm10 (GRCm38, December 2011) using Bowtie 2.2.649 and Tophat 2.2.149. Only uniquely mapped reads were retained. Raw counts that fell on exons were calculated and normalized by using RPKM (Reads Per Kilobase per Million mapped reads). Differentially expressed genes were identified with the R Bioconductor package edgeR50, and the expression heat maps were generated with the R package “pheatmap”. Metabolic genes were extracted from the KEGG pathway database, including those corresponding to Fatty Acid Biosynthesis/Degradation, Ox/Phos, Pyruvate metabolism, amino sugar and nucleotide sugar metabolism, pentose phosphate pathway, the citric acid cycle, and glycolysis/gluconeogenesis. Metabolic genes that overlapped with RNA-Seq data were subsequently shown in heat maps.

[12] = tested on: murine splenic CD8+ T cells; assay: Media measurements of lactate secretion and glucose consumption (YSI 2900 analyzer); format: cell-based, mouse; settings: IL-2- or IL-21-stimulated cells; NCI-737 1 μM
Method: as §1, with “Where noted, cells were treated (1 μM) with a novel, pyrazole-based LDH inhibitor (NCI-737, herein denoted as NCI-737) that was developed under the auspices of the NCI Experimental Therapeutics Program 29.” left out
(§2) Cells were then washed with media supplemented with dialyzed fetal bovine serum (“FBS”) (Thermo-Fischer #A3382001), replated in RPMI 1640 medium containing 10% dialyzed FBS, 1× Glutamax (ThermoFisher #35050061), 1 mM sodium pyruvate, 0.1% β-mercaptoethanol, and penicillin-streptomycin, and re-stimulated with same cytokine treatment for 5 h. […] Cell extracts were analyzed using a quadrupole-orbitrap mass spectrometer (Q Exactive, Thermo Fisher Scientific, San Jose, CA) coupled to hydrophilic interaction chromatography via electrospray ionization. […] Data were analyzed using EL-MAVEN software. […]

[13] = tested on: B16 melanoma (B16KVP); assay: Mouse tumor model and adoptive transfer; format: in vivo
[14] = tested on: mouse CD8+ T cells; assay: Seahorse mitochondrial stress test (OCR, ECAR, SRC), mouse CD8+ T cells; format: cell-based; settings: NCI-737 1 μM
Method: as §1
The oxygen consumption rates (OCR) and extracellular acidification rates (ECAR) were recorded using a Seahorse XFe96 Analyzer (Agilent). Cells were washed and resuspended in Agilent XF Assay Medium supplemented with 25 mM glucose, 1 mM sodium pyruvate, and 2 mM L-Glutamine. Cells were plated on Seahorse Assay plates at 0.2×10^6 cells/well and during the assay were exposed to 1 μM oligomycin, 1.5 μM trifluoromethoxy carbonylcyanide phenylhydrazone (“FCCP”), 100 nM rotenone, and 1 μM antimycin A, as indicated.

[15] = tested on: murine splenic CD8+ T cells; assay: LC-MS metabolomics of intracellular metabolites; format: cell-based, mouse; settings: NCI-737 1 μM
Method: as §1
Cells were then washed with media supplemented with dialyzed fetal bovine serum (“FBS”) (Thermo-Fischer #A3382001), replated in RPMI 1640 medium containing 10% dialyzed FBS, 1× Glutamax (ThermoFisher #35050061), 1 mM sodium pyruvate, 0.1% β-mercaptoethanol, and penicillin-streptomycin, and re-stimulated with same cytokine treatment for 5 h. For ^13C labelling, cells were instead replated in media containing 2 g/L U^13C-glucose (Cambridge Isotope Laboratories #CLM-1396) for 6 h. 3×10^6 cells/replicate (3-4 replicates/treatment) were then transferred to microcentrifuge tubes and centrifuged for 1 min at 6000×g. Room temperature PBS was added to wash cell pellets followed by another round of centrifugation for 1 min. Pellets were then immediately resuspended in 150 μl of ice cold extraction solvent (40:40:20 acetonitrile:methanol:water+0.5% formic acid) for 5 min. After incubation, 13.2 μl of 15% ammonium bicarbonate, was added and samples were centrifuged for 15 min at maximum speed at 4° C. Supernatant containing cellular metabolites was transferred to a fresh tube, frozen in dry ice, and stored at −80° C. Cell extracts were analyzed using a quadrupole-orbitrap mass spectrometer (Q Exactive, Thermo Fisher Scientific, San Jose, CA) coupled to hydrophilic interaction chromatography via electrospray ionization. LC separation was on a XBridge BEH Amide column (2.1 mm×150 mm, 2.5 μm particle size; Waters, Milford, MA) using a gradient of solvent A (20 mM ammonium acetate, 20 mM ammonium hydroxide in 95:5 water: acetonitrile, pH 9.45) and solvent B (acetonitrile). The flow rate was 150 μl/min, column temperature was 25° C., autosampler temperature was 5° C., and injection volume was 10 μL. The LC gradient was: 0 min, 90% B; 2 min, 85% B; 3 min, 75% B; 7 min, 75% B; 8 min, 70% B; 9 min, 70% B; 10 min, 50% B; 12 min, 50% B; 13 min, 25% B; 14 min, 25% B; 16 min, 0% B; 21 min, 0% B; 22 min, 90% B; 25 min, 90% B. Autosampler temperature was 5° C., and injection volume was 10 μl. The mass spectrometer was operated in negative ion mode to scan from m/z 70 to 1000 at 1 Hz and a resolving power of 140,000 45. Data were analyzed using EL-MAVEN software. Isotope labeling was corrected for natural 13C abundance47. Media measurements were acquired using a YSI 2900 Series Biochemical Analyzer (Xylem).

[16] = tested on: murine splenic CD8+ T cells; assay: U-13C-glucose tracer study; format: cell-based, mouse; settings: NCI-737 1 μM
Method: as §1, with “Where noted, cells were treated (1 μM) with a novel, pyrazole-based LDH inhibitor (NCI-737, herein denoted as NCI-737) that was developed under the auspices of the NCI Experimental Therapeutics Program 29.” left out
as §2

[17] = PO 50 mg/kg, read-out: PO 50 mg/kg AUC

Work on `Cc1ccc(C#Cc2cc(-c3nn(-c4nc(C(=O)O)cs4)c(CC4CC4)c3Cc3ccc(S(N)(=O)=O)c(F)c3)ccc2F)s1` [Compound 390006] yielded an EC50 [1] of 355 nM, an IC50 [2] of 80 nM and an IC50 [3] of 53 nM. For the same compound, the EC50 [4] was 349 nM, the AUC ([5]; IV 10 mg/kg) was 10600 ng·h/mL and the AUC [5, 17] was 31400 ng·h/mL. The EC50 [6] was 283 nM, the “SPR ka (+NADH)” value [7] was 15000 M⁻¹ s⁻¹ and the “SPR kd (+NADH)” value [7] was <1e-06 s⁻¹. It also gave an EC50 [8] of 305 nM.

With `Cc1ccc(C#Cc2cccc(-c3nn(-c4nc(C(=O)O)cs4)c(CC4CC4)c3Cc3ccc(S(N)(=O)=O)c(F)c3)c2)s1` [Compound 420737] the EC50 [1] was 319 nM, the TSCM cells ([9]; IL-2-treated pmel-1 cells) was “restored TSCM cells in IL-2-treated cells to the levels observed with IL-21” and the TSCM cells ([9]; IL-21-treated pmel-1 cells) was “synergized with IL-21 to generate TSCM cells”. The ECAR [10] was “decreased”, the SRC [10] was “raised” and the “transcripts for exhaustion-associated transcription factors Nr4a1, Nr4a2, Nrfa3, Prdm1” value ([11]; IL-2-induced, addition of NCI-737) was “decreased by the addition of NCI-737 to levels similar to that observed in cells cultured with IL-21”. For the same compound, the “induction of Ldha by IL-2” value ([11]; IL-2 context, NCI-737 1 μM) was “prevented the induction”, the “levels of Ldhb” value ([11]; IL-2 context, NCI-737 1 μM) was “increased” and the XBP1 transcript expression ([11]; induced by IL-2, NCI-737) was “inhibited”. The “transcripts for exhaustion markers Lag3, Pdcd1, Cd244, Havcr2” value ([11]; induced by IL-21, addition of NCI-737) was “repressed”, the glucose consumption [12] was “reduced” and the lactate secretion [12] was “reduced”. The IC50 [2] was 68 nM, the “antitumor effect of adoptively transferred pmel-1 CD8+ T cells” value ([13]; IL-2-treated cells, NCI-737 1 μM only during in vitro expansion) was “augmented the antitumor effect to the level of IL-21-treated cells” and the “antitumor effect of adoptively transferred pmel-1 CD8+ T cells” value ([13]; cells generated with IL-21 and NCI-737 (1 μM, in vitro only)) was “the most potent”. The IC50 [3] was 44 nM, the ECAR ([14]; IL-2-treated cells) was “decreased” and the OCR ([14]; IL-2-treated cells) was “significantly increased”. For the same compound, the SRC ([14]; IL-2-treated cells) was “significantly increased”, the ECAR ([14]; IL-21-treated cells) was “did not significantly alter” and the SRC ([14]; IL-21-treated cells) was “did not significantly alter”. The “basal OCR” value ([14]; IL-21-treated cells) was “did not significantly alter”, the EC50 [4] was 344 nM and the AUC ([5]; IV 10 mg/kg) was 16500 ng·h/mL. For the same compound, the AUC [5, 17] was 53400 ng·h/mL, the “increase in the NADH/NAD+ ratio” value ([15]; IL-2-treated cells) was ~100 fold and the intracellular pyruvate ([15]; IL-2-treated cells) was “markedly increased”. For the same compound, the “2-hydroxyglutarate (2HG)” value ([15]; IL-2 setting) was “decreased”, the “increase in glycolytic intermediates and FGAR” value ([15]; IL-2 setting) was > 4 fold and the “NADH/NAD+ ratio” value ([15]; IL-21 stimulated cells) was “slightly raised”. The intracellular pyruvate levels ([15]; IL-21 stimulated cells) was “did not alter”, the metabolite levels ([15]; IL-21 stimulated cells) was “little effect” and the lactate in cells ([15]; cells stimulated with either IL-2 or IL-21) was “lowered”. The EC50 [6] was 236 nM, the “relative contribution of glucose into the TCA cycle” value ([16]; IL-2-treated cells) was “higher relative contribution” and the isotopomer distribution ([16]; IL-21-stimulated cells) was “little effect”. For the same compound, the “SPR ka (+NADH)” value [7] was 16000 M⁻¹ s⁻¹, the “SPR kd (+NADH)” value [7] was <1e-06 s⁻¹ and the EC50 [8] was 221 nM.
